Patent US11649255B2, “Indazoles as hematopoietic progenitor kinase 1 (HPK1) inhibitors and methods using same” (1st Biotherapeutics, Inc., priority 2020, dated 2023)

Biological target: recombinant human HPK1 (Homo sapiens (Human), UniProt Q92918)
Assay: HPK1 kinase assay (ADP-Glo)
Type: biochemical
Conditions: 25 μM ATP, MBP substrate
Outline: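 Activity was read as ADP formed, detected by ADP-Glo luminescence after the reaction of 5 ng recombinant human HPK1 with MBP and ATP (stocks 0.5 μg/μl and 25 μM) for 40 min at 30 °C. Buffer was Tris pH 7.5 with MgCl2, BSA and DTT, with compound in 0.5% DMSO. IC50 came from inhibition curves.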

Chain of recombinant human HPK1 (Q92918 whole entry): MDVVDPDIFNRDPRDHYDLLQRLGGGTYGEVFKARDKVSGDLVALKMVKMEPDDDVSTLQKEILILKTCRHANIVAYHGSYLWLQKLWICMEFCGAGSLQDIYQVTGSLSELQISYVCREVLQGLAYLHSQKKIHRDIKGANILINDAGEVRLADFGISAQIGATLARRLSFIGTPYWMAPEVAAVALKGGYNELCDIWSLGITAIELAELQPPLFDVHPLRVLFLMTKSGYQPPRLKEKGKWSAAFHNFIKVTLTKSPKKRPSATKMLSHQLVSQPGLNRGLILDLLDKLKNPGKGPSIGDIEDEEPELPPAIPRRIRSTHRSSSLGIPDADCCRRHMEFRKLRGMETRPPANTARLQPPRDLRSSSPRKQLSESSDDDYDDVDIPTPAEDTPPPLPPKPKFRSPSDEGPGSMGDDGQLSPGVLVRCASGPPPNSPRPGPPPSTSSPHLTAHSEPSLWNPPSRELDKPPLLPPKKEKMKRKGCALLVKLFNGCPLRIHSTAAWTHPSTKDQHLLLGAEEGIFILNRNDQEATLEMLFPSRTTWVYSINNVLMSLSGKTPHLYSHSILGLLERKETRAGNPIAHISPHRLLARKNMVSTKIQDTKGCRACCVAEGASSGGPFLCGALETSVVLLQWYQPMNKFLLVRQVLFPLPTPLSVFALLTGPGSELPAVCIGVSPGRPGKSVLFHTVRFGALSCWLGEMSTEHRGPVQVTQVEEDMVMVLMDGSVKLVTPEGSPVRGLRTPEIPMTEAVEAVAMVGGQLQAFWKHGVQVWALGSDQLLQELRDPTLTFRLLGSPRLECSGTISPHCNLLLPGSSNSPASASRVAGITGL

| IC50 [nM] | SMILES |
| --- | --- |
| 501 to 1000 | O=C(Nc1nc2ccc(-c3c(CO)ccc4[nH]ncc34)cc2s1)C1CC1 [Example 25, N-(6-(5-(hydroxymethyl)-1H-indazol-4-yl)benzo[d]thiazol-2-yl)cyclopropanecarboxamide] |
| < 100 | COC(=O)c1c(F)c(C)c(-c2ccc3nc(NC(=O)[C@@H]4C[C@@H]4F)cn3c2)c2cn[nH]c12 [Example 305, methyl 6-fluoro-4-(2-((1S,2S)-2-fluorocyclopropane-1-carboxamido)imidazo[1,2-a]pyridin-6-yl)-5-methyl-1H-indazole-7-carboxylate] |
| 101 to 500 | CSc1ccc(-c2ccc3nc(NC(=O)[C@@H]4C[C@@H]4F)cn3c2)c2cn[nH]c12 [Example 340, (1S,2S)-2-fluoro-N-(6-(7-(methylthio)-1H-indazol-4-yl)imidazo[1,2-a]pyridin-2-yl)cyclopropane-1-carboxamide] |
| < 100 | Cc1c(F)c(F)c2[nH]ncc2c1-c1ccn2nc(NC(=O)[C@@H]3C[C@@H]3F)cc2c1 [Example 481, (1S,2S)-N-(5-(6,7-difluoro-5-methyl-1H-indazol-4-yl)pyrazolo[1,5-a]pyridin-2-yl)-2-fluorocyclopropane-1-carboxamide] |
| < 100 | CN(c1c(F)c(Cl)c(-c2ccn3nc(NC(=O)[C@@H]4C[C@@H]4F)cc3c2)c2cn[nH]c12)C1CCC(N)C1 (stereo partly drawn) [Example 527, (1S,2S)-N-(5-(7-((3-aminocyclopentyl)(methyl)amino)-5-chloro-6-fluoro-1H-indazol-4-yl)pyrazolo[1,5-a]pyridin-2-yl)-2-fluorocyclopropane-1-carboxamide] |
| < 100 | COc1c(F)cc2[nH]ncc2c1-c1ccc2nc(NC(=O)[C@@H]3C[C@@H]3F)sc2n1 [Example 155, (1S,2S)-2-fluoro-N-(5-(6-fluoro-5-methoxy-1H-indazol-4-yl)thiazolo[5,4-b]pyridin-2-yl)cyclopropane-1-carboxamide] |
| 501 to 1000 | O=C(Nc1cn2cc(-c3c(CO)ccc4[nH]ncc34)ccc2n1)C1CC1 [Example 233, N-(6-(5-(hydroxymethyl)-1H-indazol-4-yl)imidazo[1,2-a]pyridin-2-yl)cyclopropanecarboxamide] |
| < 100 | COc1c(F)cc2[nH]ncc2c1-c1ccn2nc(NC(=O)[C@@H]3C[C@@H]3F)cc2c1 [Example 467, (1S,2S)-2-fluoro-N-(5-(6-fluoro-5-methoxy-1H-indazol-4-yl)pyrazolo[1,5-a]pyridin-2-yl)cyclopropane-1-carboxamide] |
| < 100 | CCC(=O)NC(C)c1c(F)c(Cl)c(-c2ccc3nc(NC(=O)[C@@H]4C[C@@H]4F)cn3c2)c2cn[nH]c12 (stereo partly drawn) [Example 424, (1S,2S)-N-(6-(5-chloro-6-fluoro-7-(1-propionamidoethyl)-1H-indazol-4-yl)imidazo[1,2-a]pyridin-2-yl)-2-fluorocyclopropane-1-carboxamide] |
| < 100 | COC[C@H](C)c1c(F)c(Cl)c(-c2ccc3nc(NC(=O)[C@@H]4C[C@@H]4F)cn3c2)c2cn[nH]c12 [Example 422, (1S,2S)-N-(6-(5-chloro-6-fluoro-7-((R)-1-methoxypropan-2-yl)-1H-indazol-4-yl)imidazo[1,2-a]pyridin-2-yl)-2-fluorocyclopropane-1-carboxamide] |
| < 100 | O=C(Nc1cn2cc(-c3c(Cl)c(F)c(F)c4[nH]ncc34)ccc2n1)[C@@H]1C[C@@H]1F [Example 323, (1S,2S)-N-(6-(5-chloro-6,7-difluoro-1H-indazol-4-yl)imidazo[1,2-a]pyridin-2-yl)-2-fluorocyclopropane-1-carboxamide] |
| > 1000 | Nc1c(F)cc2[nH]ncc2c1-c1ccc2nc(NC(=O)C3CC3)cn2c1 [Example 227, N-(6-(5-amino-6-fluoro-1H-indazol-4-yl)imidazo[1,2-a]pyridin-2-yl)cyclopropanecarboxamide] |
| < 100 | N#CCNc1c(F)c(Cl)c(-c2ccn3nc(NC(=O)[C@@H]4C[C@@H]4F)cc3c2)c2cn[nH]c12 [Example 636, (1S,2S)-N-(5-(5-chloro-7-((cyanomethyl)amino)-6-fluoro-1H-indazol-4-yl)pyrazolo[1,5-a]pyridin-2-yl)-2-fluorocyclopropane-1-carboxamide] |
| 101 to 500 | CC(C#N)N(C(=O)OCc1ccccc1)c1c(F)c(Cl)c(-c2ccn3nc(NC(=O)[C@@H]4C[C@@H]4F)cc3c2)c2cn[nH]c12 (stereo partly drawn) [Example 643, benzyl (5-chloro-6-fluoro-4-(2-((1S,2S)-2-fluorocyclopropane-1-carboxamido)pyrazolo[1,5-a]pyridin-5-yl)-1H-indazol-7-yl)(1-cyanoethyl)carbamate] |
| < 100 | CNC1CCC(Nc2c(F)c(Cl)c(-c3ccn4nc(NC(=O)[C@@H]5C[C@@H]5F)cc4c3)c3cn[nH]c23)CC1 (stereo partly drawn) [Example 508, (1S,2S)-N-(5-(5-chloro-6-fluoro-7-((4-(methylamino)cyclohexyl)amino)-1H-indazol-4-yl)pyrazolo[1,5-a]pyridin-2-yl)-2-fluorocyclopropane-1-carboxamide] |
| < 100 | O=C(Nc1nc2ccc(-c3c(Br)c(F)cc4[nH]ncc34)nc2s1)[C@@H]1C[C@@H]1F [Example 160, (1S,2S)-N-(5-(5-bromo-6-fluoro-1H-indazol-4-yl)thiazolo[5,4-b]pyridin-2-yl)-2-fluorocyclopropane-1-carboxamide] |

| IC50 [nM] | SMILES |
| --- | --- |
| < 100 | COC[C@@H](C)c1c(F)c(Cl)c(-c2ccn3nc(NC(=O)[C@@H]4C[C@@H]4F)cc3c2)c2cn[nH]c12 [Example 656, (1S,2S)-N-(5-(5-chloro-6-fluoro-7-((S)-1-methoxypropan-2-yl)-1H-indazol-4-yl)pyrazolo[1,5-a]pyridin-2-yl)-2-fluorocyclopropane-1-carboxamide] |
| < 100 | C[C@H](c1c(F)c(Cl)c(-c2ccc3nc(NC(=O)[C@@H]4C[C@@H]4F)cn3c2)c2cn[nH]c12)n1cnnn1 [Example 413] |
| < 100 | O=C(Nc1cn2cc(-c3c(Cl)c(F)c(CN4CCC4)c4[nH]ncc34)ccc2n1)[C@@H]1C[C@@H]1F [Example 380, (1S,2S)-N-(6-(7-(azetidin-1-ylmethyl)-5-chloro-6-fluoro-1H-indazol-4-yl)imidazo[1,2-a]pyridin-2-yl)-2-fluorocyclopropane-1-carboxamide] |
| 101 to 500 | C=Cc1n[nH]c2cc(F)c(C)c(-c3ccn4nc(NC(=O)[C@@H]5C[C@@H]5F)cc4c3)c12 [Example 474, (1S,2S)-2-fluoro-N-(5-(6-fluoro-5-methyl-3-vinyl-1H-indazol-4-yl)pyrazolo[1,5-a]pyridin-2-yl)cyclopropane-1-carboxamide] |
| < 100 | O=C(Nc1cc2cc(-c3c(Cl)c(F)c(N4CCC(F)C4)c4[nH]ncc34)ccn2n1)[C@@H]1C[C@@H]1F (stereo partly drawn) [Example 642, (1S,2S)-N-(5-(5-chloro-6-fluoro-7-(3-fluoropyrrolidin-1-yl)-1H-indazol-4-yl)pyrazolo[1,5-a]pyridin-2-yl)-2-fluorocyclopropane-1-carboxamide] |
| < 100 | O=C(Nc1cc2cc(-c3c(C(F)F)c(F)cc4[nH]ncc34)ccn2n1)[C@@H]1C[C@@H]1F [Example 468, (1S,2S)-N-(5-(5-(difluoromethyl)-6-fluoro-1H-indazol-4-yl)pyrazolo[1,5-a]pyridin-2-yl)-2-fluorocyclopropane-1-carboxamide] |
| > 1000 | CSc1ccc(-c2ccc3nc(NC(=O)[C@@H]4C[C@@H]4F)sc3n2)c2cn[nH]c12 [Example 212, (1S,2S)-2-fluoro-N-(5-(7-(methylthio)-1H-indazol-4-yl)thiazolo[5,4-b]pyridin-2-yl)cyclopropane-1-carboxamide] |
| > 1000 | Cc1ccc2[nH]ncc2c1-c1ccc2nc(NC(=O)C3CCCC3)sc2c1 [Example 10, N-(6-(5-methyl-1H-indazol-4-yl)benzo[d]thiazol-2-yl)cyclopentanecarboxamide] |
| 101 to 500 | O=C(Nc1cc2cc(-c3c(C4CC4)ccc4[nH]ncc34)ccn2n1)[C@@H]1C[C@@H]1F [Example 459, (1S,2S)-N-(5-(5-cyclopropyl-1H-indazol-4-yl)pyrazolo[1,5-a]pyridin-2-yl)-2-fluorocyclopropane-1-carboxamide] |
| < 100 | CCc1c(F)c(N(C)CC)c2[nH]ncc2c1-c1ccc2nc(NC(=O)[C@@H]3C[C@@H]3F)sc2c1 [Example 136, (1S,2S)-N-(6-(5-ethyl-7-(ethyl(methyl)amino)-6-fluoro-1H-indazol-4-yl)benzo[d]thiazol-2-yl)-2-fluorocyclopropane-1-carboxamide] |
| > 1000 | O=C(Nc1nc2ccc(-c3c(-c4cccs4)ccc4[nH]ncc34)cc2s1)C1CC1 [Example 13, N-(6-(5-(thiophen-2-yl)-1H-indazol-4-yl)benzo[d]thiazol-2-yl)cyclopropanecarboxamide] |
| > 1000 | CN(C)c1ccc2[nH]ncc2c1-c1ccn2nc(NC(=O)[C@@H]3C[C@@H]3F)cc2c1 [Example 450, (1S,2S)-N-(5-(5-(dimethylamino)-1H-indazol-4-yl)pyrazolo[1,5-a]pyridin-2-yl)-2-fluorocyclopropane-1-carboxamide] |
| < 100 | CN(Nc1c(F)c(Cl)c(-c2ccc3nc(NC(=O)[C@@H]4C[C@@H]4F)sc3n2)c2cn[nH]c12)C(=O)OC(C)(C)C [Example 192, tert-butyl 2-(5-chloro-6-fluoro-4-(2-((1S,2S)-2-fluorocyclopropane-1-carboxamido)thiazolo[5,4-b]pyridin-5-yl)-1H-indazol-7-yl)-1-methylhydrazine-1-carboxylate] |
| < 100 | O=C(Nc1cc2cc(-c3c(Cl)c(F)c(Nc4ncccn4)c4[nH]ncc34)ccn2n1)[C@@H]1C[C@@H]1F [Example 601, (1S,2S)-N-(5-(5-chloro-6-fluoro-7-(pyrimidin-2-ylamino)-1H-indazol-4-yl)pyrazolo[1,5-a]pyridin-2-yl)-2-fluorocyclopropane-1-carboxamide] |
| < 100 | CCc1c(F)cc2[nH]ncc2c1-c1ccc2nc(NC(=O)[C@@H]3C[C@@H]3F)sc2c1 [Example 46, (1S,2S)-N-(6-(5-ethyl-6-fluoro-1H-indazol-4-yl)benzo[d]thiazol-2-yl)-2-fluorocyclopropane-1-carboxamide] |
